Results from publication PMC8288134, “Synthesis, potential antitumor activity, cell cycle analysis, and multitarget mechanisms of novel hydrazones incorporating a 4-methylsulfonylbenzene scaffold: a molecular docking study” (Journal of Enzyme Inhibition and Medicinal Chemistry, 2021).
Where two headings read alike, the source gives them in different places.

Legend:
[1] = tested on: NCI-H460; assay: NCI antitumor screen (SRB); assay type: cell-based; conditions: Homo sapiens; for inhibition at 10 µM: one dose 10 µM, read-out: Growth inhibition percentage (GI%)
[2] = tested on: NCI-H522; assay: NCI antitumor screen (SRB); assay type: cell-based; conditions: Homo sapiens
[3] = tested on: HT29; assay: NCI antitumor screen (SRB); assay type: cell-based; conditions: Homo sapiens; for inhibition at 10 µM: HT-29, one dose 10 µM, read-out: Growth inhibition percentage (GI%)
[4] = tested on: KM12; assay: NCI antitumor screen (SRB); assay type: cell-based; conditions: Homo sapiens; for inhibition at 10 µM: one dose 10 µM, read-out: Growth inhibition percentage (GI%)
[5] = tested on: SF-268; assay: NCI antitumor screen (SRB); assay type: cell-based; conditions: Homo sapiens; for inhibition at 10 µM: one dose 10 µM, read-out: Growth inhibition percentage (GI%)
[6] = tested on: SF-295; assay: NCI antitumor screen (SRB); assay type: cell-based; conditions: Homo sapiens; for inhibition at 10 µM: one dose 10 µM, read-out: Growth inhibition percentage (GI%)
[7] = tested on: SNB-19; assay: NCI antitumor screen (SRB); assay type: cell-based; conditions: Homo sapiens; for inhibition at 10 µM: one dose 10 µM, read-out: Growth inhibition percentage (GI%)
[8] = tested on: MALME-3M; assay: NCI antitumor screen (SRB); assay type: cell-based; conditions: Homo sapiens; for inhibition at 10 µM: one dose 10 µM, read-out: Growth inhibition percentage (GI%)
[9] = tested on: UACC-257; assay: NCI antitumor screen (SRB); assay type: cell-based, human; conditions: for inhibition at 10 µM: read-out: Growth inhibition percentage (GI%)
[10] = tested on: IGROV1; assay: NCI antitumor screen (SRB); assay type: cell-based; conditions: Homo sapiens; for inhibition at 10 µM: IGROV-1, one dose 10 µM, read-out: Growth inhibition percentage (GI%)
[11] = tested on: OVCAR-4; assay: NCI antitumor screen (SRB); assay type: cell-based; conditions: Homo sapiens; for inhibition at 10 µM: one dose 10 µM, read-out: Growth inhibition percentage (GI%)
[12] = tested on: OVCAR-8; assay: NCI antitumor screen (SRB); assay type: cell-based; conditions: Homo sapiens; for inhibition at 10 µM: one dose 10 µM, read-out: Growth inhibition percentage (GI%)
[13] = tested on: 786-0; assay: NCI antitumor screen (SRB); assay type: cell-based; conditions: Homo sapiens; for inhibition at 10 µM: one dose 10 µM, read-out: Growth inhibition percentage (GI%)
[14] = tested on: UO-31; assay: NCI antitumor screen (SRB); assay type: cell-based, human; conditions: for inhibition at 10 µM: read-out: Growth inhibition percentage (GI%)
[15] = tested on: PC-3; assay: NCI antitumor screen (SRB); assay type: cell-based; conditions: Homo sapiens; for inhibition at 10 µM: one dose 10 µM, read-out: Growth inhibition percentage (GI%)
[16] = tested on: full panel of 59 cancer cell lines; assay: NCI antitumor screen, full panel; conditions: for PCE: positive cytotoxic effect (number of cell lines with GI 10 to 100% / total number of cell lines): one dose 10 µM
[17] = tested on: CCRF-CEM; design: method as in https://dtp.cancer.gov/dtpstandard/dwindex/index.jsp; conditions: reference drugs, ref https://dtp.cancer.gov/dtpstandard/dwindex/index.jsp; cited from earlier work
[18] = tested on: HOP-62; design: method as in https://dtp.cancer.gov/dtpstandard/dwindex/index.jsp; conditions: reference drugs, ref https://dtp.cancer.gov/dtpstandard/dwindex/index.jsp; cited from earlier work
[19] = tested on: COLO 205; design: method as in https://dtp.cancer.gov/dtpstandard/dwindex/index.jsp; conditions: reference drugs, ref https://dtp.cancer.gov/dtpstandard/dwindex/index.jsp; cited from earlier work
[20] = tested on: HCC-2998; design: method as in https://dtp.cancer.gov/dtpstandard/dwindex/index.jsp; conditions: reference drugs, ref https://dtp.cancer.gov/dtpstandard/dwindex/index.jsp; cited from earlier work
[21] = tested on: HCT-15; design: method as in https://dtp.cancer.gov/dtpstandard/dwindex/index.jsp; conditions: reference drugs, ref https://dtp.cancer.gov/dtpstandard/dwindex/index.jsp; cited from earlier work
[22] = tested on: SF-268; design: method as in https://dtp.cancer.gov/dtpstandard/dwindex/index.jsp; conditions: reference drugs, ref https://dtp.cancer.gov/dtpstandard/dwindex/index.jsp; cited from earlier work
[23] = tested on: SF-295; design: method as in https://dtp.cancer.gov/dtpstandard/dwindex/index.jsp; conditions: reference drugs, ref https://dtp.cancer.gov/dtpstandard/dwindex/index.jsp; cited from earlier work
[24] = tested on: SF-539; design: method as in https://dtp.cancer.gov/dtpstandard/dwindex/index.jsp; conditions: reference drugs, ref https://dtp.cancer.gov/dtpstandard/dwindex/index.jsp; cited from earlier work
[25] = tested on: U251; design: method as in https://dtp.cancer.gov/dtpstandard/dwindex/index.jsp; conditions: reference drugs, ref https://dtp.cancer.gov/dtpstandard/dwindex/index.jsp; cited from earlier work
[26] = tested on: SK-MEL-2; design: method as in https://dtp.cancer.gov/dtpstandard/dwindex/index.jsp; conditions: reference drugs, ref https://dtp.cancer.gov/dtpstandard/dwindex/index.jsp; cited from earlier work
[27] = tested on: SK-MEL-28; design: method as in https://dtp.cancer.gov/dtpstandard/dwindex/index.jsp; conditions: reference drugs, ref https://dtp.cancer.gov/dtpstandard/dwindex/index.jsp; cited from earlier work
[28] = tested on: UACC-257; design: method as in https://dtp.cancer.gov/dtpstandard/dwindex/index.jsp; conditions: reference drugs, ref https://dtp.cancer.gov/dtpstandard/dwindex/index.jsp; cited from earlier work
[29] = tested on: UACC-62; design: method as in https://dtp.cancer.gov/dtpstandard/dwindex/index.jsp; conditions: reference drugs, ref https://dtp.cancer.gov/dtpstandard/dwindex/index.jsp; cited from earlier work
[30] = tested on: OVCAR-5; design: method as in https://dtp.cancer.gov/dtpstandard/dwindex/index.jsp; conditions: reference drugs, ref https://dtp.cancer.gov/dtpstandard/dwindex/index.jsp; cited from earlier work
[31] = tested on: RXF 393; design: method as in https://dtp.cancer.gov/dtpstandard/dwindex/index.jsp; conditions: reference drugs, ref https://dtp.cancer.gov/dtpstandard/dwindex/index.jsp; cited from earlier work
[32] = tested on: SN12C; design: method as in https://dtp.cancer.gov/dtpstandard/dwindex/index.jsp; conditions: reference drugs, ref https://dtp.cancer.gov/dtpstandard/dwindex/index.jsp; cited from earlier work
[33] = tested on: UO-31; design: method as in https://dtp.cancer.gov/dtpstandard/dwindex/index.jsp; conditions: reference drugs, ref https://dtp.cancer.gov/dtpstandard/dwindex/index.jsp; cited from earlier work
[34] = tested on: DU-145; design: method as in https://dtp.cancer.gov/dtpstandard/dwindex/index.jsp; conditions: reference drugs, ref https://dtp.cancer.gov/dtpstandard/dwindex/index.jsp; cited from earlier work
[35] = tested on: MDA-MB-231/ATCC; design: method as in https://dtp.cancer.gov/dtpstandard/dwindex/index.jsp; conditions: reference drugs, ref https://dtp.cancer.gov/dtpstandard/dwindex/index.jsp; cited from earlier work
[36] = tested on: HS 578 T; design: method as in https://dtp.cancer.gov/dtpstandard/dwindex/index.jsp; conditions: reference drugs, ref https://dtp.cancer.gov/dtpstandard/dwindex/index.jsp; cited from earlier work
[37] = tested on: colon cancer tumour cell lines; conditions: cited from earlier work; for GI50: read-out: GI50 (subpanel average), reference drugs, ref https://dtp.cancer.gov/dtpstandard/dwindex/index.jsp; for TGI (subpanel average): reference drugs, ref https://dtp.cancer.gov/dtpstandard/dwindex/index.jsp
[38] = tested on: melanoma tumour cell lines; conditions: cited from earlier work; for GI50: read-out: GI50 (subpanel average), reference drugs, ref https://dtp.cancer.gov/dtpstandard/dwindex/index.jsp; for TGI (subpanel average): reference drugs, ref https://dtp.cancer.gov/dtpstandard/dwindex/index.jsp
[39] = tested on: SW-620; design: method as in https://dtp.cancer.gov/dtpstandard/dwindex/index.jsp; conditions: reference drugs, ref https://dtp.cancer.gov/dtpstandard/dwindex/index.jsp; cited from earlier work
[40] = tested on: A498; design: method as in https://dtp.cancer.gov/dtpstandard/dwindex/index.jsp; conditions: reference drugs, ref https://dtp.cancer.gov/dtpstandard/dwindex/index.jsp; cited from earlier work
[41] = five concentrations 0.01-100 µM
[42] = read-out: LC50 (subpanel average), reference drugs, ref https://dtp.cancer.gov/dtpstandard/dwindex/index.jsp

## CS(=O)(=O)c1ccc(C(=O)N/N=C/c2ccccc2O)cc1 [Compound 16]
[1]
  inhibition at 10 µM: 85.9%
[2]; NCI-H522, read-out: Growth inhibition percentage (GI%)
  inhibition at 10 µM: 84.9%
[3]
  inhibition at 10 µM: 56.4%
[4]
  inhibition at 10 µM: 65.9%
[5]
  inhibition at 10 µM: 61.6%
[6]
  inhibition at 10 µM: 62%
[7]
  inhibition at 10 µM: 54.6%
[8]
  inhibition at 10 µM: 36.5%
[9]; Homo sapiens, UACC-257, one dose 10 µM
  inhibition at 10 µM: 77.4%
[10]
  inhibition at 10 µM: 59%
[11]
  inhibition at 10 µM: 56.3%
[12]
  inhibition at 10 µM: 72.1%
[13]
  inhibition at 10 µM: 67%
[14]; Homo sapiens, UO-31, one dose 10 µM
  inhibition at 10 µM: 82%
[15]
  inhibition at 10 µM: 45.7%
[16]
  PCE: positive cytotoxic effect (number of cell lines with GI 10 to 100% / total number of cell lines): 59/59

## CCN(CC)c1ccc(/C=N/NC(=O)c2ccc(S(C)(=O)=O)cc2)c(O)c1 [Compound 20]
[1]; [41]
  GI50: 113 nM
[1]
  inhibition at 10 µM: 96.7%
[2]; NCI-H522, five concentrations 0.01-100 µM
  GI50: 395 nM
[2]; NCI-H522, one dose 10 µM, read-out: Growth inhibition percentage (GI%)
  inhibition at 10 µM: 90.1%
[3]; HT-29, five concentrations 0.01-100 µM
  GI50: 297 nM
[3]
  inhibition at 10 µM: 78.2%
[4]; [41]
  GI50: 404 nM
[4]
  inhibition at 10 µM: 74.1%
[5]; [41]
  GI50: 78.9 nM
[5]
  inhibition at 10 µM: 78.2%
[6]; [41]
  GI50: 200 nM
[6]
  inhibition at 10 µM: 78.6%
[7]; [41]
  GI50: 428 nM
[7]
  inhibition at 10 µM: 68%
[8]; [41]
  GI50: 440 nM
[8]
  inhibition at 10 µM: 86%
[9]; Homo sapiens, UACC-257, UACC-257, one dose 10 µM
  inhibition at 10 µM: 100%
[9]; Homo sapiens, UACC-257, five concentrations 0.01-100 µM
  GI50: 340 nM
[9]; UACC-257, one dose 10 µM
  Growth inhibition percentage (GI%): >100%
[10]; IGROV-1, five concentrations 0.01-100 µM
  GI50: 196 nM
[10]
  inhibition at 10 µM: 78.8%
[11]; [41]
  GI50: 63 nM
[11]
  inhibition at 10 µM: 65.3%
[12]; [41]
  GI50: 250 nM
[12]
  inhibition at 10 µM: 83.2%
[13]; [41]
  GI50: 182 nM
[13]
  inhibition at 10 µM: 84.6%
[14]; Homo sapiens, UO-31, UO-31, one dose 10 µM
  inhibition at 10 µM: 100%
[14]; Homo sapiens, UO-31, five concentrations 0.01-100 µM
  GI50: 139 nM
[14]; UO-31, one dose 10 µM
  Growth inhibition percentage (GI%): >100%
[15]; [41]
  GI50: 319 nM
[15]
  inhibition at 10 µM: 50.8%
[16]; Homo sapiens, read-out: GI50 (range over cell lines)
  GI50: 63 to 11700 nM
[16]; Homo sapiens, read-out: GI50 MG-MID (full panel mean-graph midpoint)
  GI50: 260 nM
[16]; Homo sapiens, read-out: LC50 MG-MID (full panel mean-graph midpoint)
  CC50: > 100000 nM
[16]; full panel
  TGI MG-MID (full panel mean-graph midpoint): 46800 nM
[16]
  PCE: positive cytotoxic effect (number of cell lines with GI 10 to 100% / total number of cell lines): 59/59
[16]; ratio of GI50 MG_MID
  fold more potent than 5-Fu: ~3 fold
  fold more potent than celecoxib: ~65 fold
  fold more potent than erlotinib: ~30 fold
  fold more potent than gefitinib and sorafenib: ~9 fold

## COc1cc2ncnc(Nc3ccc(F)c(Cl)c3)c2cc1OCCCN1CCOCC1 [Gefitinib, gefitinib]
[17]
  GI50: 398 nM
[18]
  GI50: 3160 nM
[19]
  GI50: 7940 nM
[20]
  GI50: 2510 nM
[21]
  GI50: 3980 nM
[22]
  GI50: 2510 nM
[23]
  GI50: 10000 nM
[24]
  GI50: 10000 nM
[25]
  GI50: 3160 nM
[26]
  GI50: 10000 nM
[27]
  GI50: 3160 nM
[28]
  GI50: 2510 nM
[29]
  GI50: 2000 nM
[30]
  GI50: 3980 nM
[31]
  GI50: 3160 nM
[32]
  GI50: 1260 nM
[33]
  GI50: 1580 nM
[34]
  GI50: 1580 nM
[35]
  GI50: 3980 nM
[36]
  GI50: 7940 nM
[37]
  GI50: 5230 nM
  TGI (subpanel average): 18470 nM
[38]
  GI50: 3680 nM
  TGI (subpanel average): 12490 nM

## CNC(=O)c1cc(Oc2ccc(NC(=O)Nc3ccc(Cl)c(C(F)(F)F)c3)cc2)ccn1 [Sorafenib, sorafenib]
[17]
  GI50: 1990 nM
[18]
  GI50: 1990 nM
[19]
  GI50: 1990 nM
[20]
  GI50: 3160 nM
[21]
  GI50: 2510 nM
[39]
  GI50: 2510 nM
[22]
  GI50: 2510 nM
[25]
  GI50: 1990 nM
[26]
  GI50: 1990 nM
[27]
  GI50: 2510 nM
[28]
  GI50: 1990 nM
[30]
  GI50: 3160 nM
[40]
  GI50: 2510 nM
[31]
  GI50: 2510 nM
[32]
  GI50: 2510 nM
[33]
  GI50: 2510 nM
[34]
  GI50: 3160 nM
[35]
  GI50: 1260 nM
[37]
  GI50: 2190 nM
  TGI (subpanel average): 7940 nM
[37]; [42]
  CC50: 38100 nM
[38]
  GI50: 1870 nM
  TGI (subpanel average): 6290 nM
[38]; [42]
  CC50: 28600 nM
